# Data reported in EP1464336A1, “Use of tryprostatin A for the reversal of cancer drug resistance” (Humboldt-Universität zu Berlin, priority 2003, dated 2004).
# Entries after “also recorded” stand apart in the source; their conditions may differ.
# Tests used:
# Format in all cases: cell-based, human
# [1] = test system: drug-sensitive and drug-resistant gastric and breast cancer cell lines; assay: Cytotoxicity of the MDR modulators alone (SRB proliferation assay); details: for growth inhibitory effect / cytotoxic side effects: 10 µM TPS-A alone, any of the drug-sensitive or drug-resistant cancer cell lines tested
# Description: (§1) Modulation of chemoresistance was tested using a proliferation assay based on sulforhodamine B (SRB), a protein-binding reagent (Skehan P et al., J Natl Cancer Inst 1990;82:1107-12), as described in Lage H et al., Int J Hyperthermia 2000;16:291-303; Lage H et al., FEBS Lett 2001;503:179-84; Lage H et al., FEBS Lett 2001;494:54-9. In each experiment, 350 cells per well were seeded in the presence or absence of TPS-A in 96-well plates in complete medium and allowed to attach overnight. Mitoxantrone or daunorubicin were added in a dilution series in triplicate wells. After 5 days, when unselected wells were still subconfluent, incubation was terminated by replacing the medium with 10 % trichloroacetic acid, followed by incubation at 4 °C for 1 h. After samples were washed 5 times with water and air-dried, 50 µl 0.4 % SRB (Sigma, St. Louis, MO) in 1 % acetic acid was added and samples were incubated for 10 min at room temperature. Unbound dye was eliminated by washing the plates 5 times with 1 % acetic acid. After air-drying and re-solubilisation of the protein-bound dye in 10 mM Tris-HCl (pH 8.0), absorbance was quantified at 562.5 nm. To determine the IC50-value, the absorbance difference of control cells without drug was set to be 100 %. Linear regression of data was done for the linear part of the curve, and IC50-values were calculated from multiple, at least three independent experiments for each cell line.
# The cytotoxicity of the MDR modulators TPS-A and GF120918 on drug-sensitive and drug-resistant gastric and breast cancer cell lines was initially assessed.
# [2] = test system: gastric and breast carcinoma cell variants; assay: Modulation of chemoresistance to mitoxantrone or daunorubicin (SRB proliferation assay, IC50/DMF)
# Description: as §1
# The cellular sensitivity to mitoxantrone and daunorubicin was assessed by determining the IC50 values without or with increasing concentrations of TPS-A or GF120918 as a positive control in the different cancer cell variants. Table 1 presents the data of TPS-A reversal of mitoxantrone and daunorubicin resistance in different gastric and breast carcinoma cell variants, respectively. […] In each case, the equation DMF=(IC50 (-CS))/(IC50 (+CS)) [formula] was used to calculate the dose modifying factor (DMF), comparing the IC50 values in the presence (+CS) or absence (-CS) of the corresponding chemosensitizer (CS) TPS-A or GF120918.
# [3] = test system: BCRP overexpressing cells (EPG85-257RNOV); assay: Annexin assay: FITC-Annexin V binding, exposure of endogenous PS (flow cytometry); details: preincubation with 5 µM Tryprostatin A for 30 min at 37°C (Fig. 9, 10)
# Description: (§2) To measure exposure of endogenous PS on the cell surface, cells were incubated on ice for 10 minutes in the dark with 9 nM FITC-Annexin V in binding buffer. Two minutes prior to the end of the incubation, propidium iodide (final 1.9 µM) was added. Cells were then washed three times, detached from the dishes through pipetting, and suspended in binding buffer. Measurement was performed with a FACSCalibur flow cytometer (Becton Dickinson, St. Louis, MO) 5 minutes after the end of incubation. Regions were set to exclude subcellular particles, and only single cells were counted (10 000 cells / sample). A further gate excluded damaged cells with elevated propidium iodide staining. Data were analyzed by Becton Dickinson CellQuest software.
# [4] = test system: control cells (EPG85-257P); assay: as above; details: treatment with Tryprostatin A (data not shown)
# Description: as §2
# [5] = test system: drug-sensitive, and drug-resistant gastric carcinoma and breast cancer cells; assay: Time course of mitoxantrone accumulation (flow cytometry); details: 10 µM mitoxantrone and TPS-A for increasing time periods (Fig 5A, 5B)
# Description: Cellular mitoxantrone accumulation was determined according to the procedure described in Lage H et al., FEBS Lett 2001;503:179-84. Briefly, 4 x 10^5 cells were seeded out in 6-well plates 78 hours prior to the experiment. Incubation with mitoxantrone (0, 1,5 and 10 µg/ml) was performed for 60 minutes at 37°C and 70-80 % cellular confluence. For kinetics of intracellular enrichment of mitoxantrone, cells were exposed to 10 µg/ml mitoxantrone for 0, 5, 10 and 60 min. Cells were washed with ice-cold PBS, trypsinized and resuspended in 4 °C PBS at a concentration of 4 x 10^5 cells/ml. Intracellular fluorescence of mitoxantrone was determined by flow cytometry (Becton-Dickinson, San Jose, CA). The cells were excited at 480 nm and emission was measured at 630 nm. A minimum of 10^4 cells was analyzed for each sample. All assays were performed at least in three independent experiments, each time with triplicate wells.
# To analyze the time course of MDR modulating effects of TPS-A, drug-sensitive, and drug-resistant gastric carcinoma and breast cancer cells were incubated with 10 µM mitoxantrone and TPS-A for increasing time periods.
compound,measurement,setting,value
"COc1ccc2c(C[C@@H]3NC(=O)[C@@H]4CCCN4C3=O)c(CC=C(C)C)[nH]c2c1 [TPS-A, tryprostatin A]",growth inhibitory effect / cytotoxic side effects,[1],no growth inhibitory effect
same,growth inhibitory effect / cytotoxic side effects,[1]; listed as tryprostatin A,without showing any cytotoxic side effects
same,cytotoxicity,[1]; TPS-A concentration range 1-100 µM,does not show any cytotoxicity
same,cross-resistance to the MDR modulator,[1]; multidrug-resistant tumor cell lines,No evidence of cross-resistance
same,sensitization to treatment with mitoxantrone,"[2]; TPS-A, BCRP-expressing gastric and breast cancer cells (Table 1, Figure 2A)",dose-depending sensitization
same,effect on sensitivity to daunorubicin,"[2]; increasing concentrations of TPS-A, drug-sensitive, P-gp- or BCRP-expressing carcinoma cells (Table 1, Figure 2B)",No significant effect
same,level of Annexin V binding,[3],reduced the level of Annexin V binding to that of control cells; also recorded: reduced to the level found for control cells
same,Annexin V binding,[4],not affected
same,chemosensitizing effects over time (mitoxantrone accumulation),[5],time-dependent manner
